Results as given in patent US20200037609A1, “HERBICIDAL COMPOSITIONS AND METHODS OF USE THEREOF” (The Regents of the University of California, priority 2017, published 2020).

Molecular target: T1, AstD (Aspergillus terreus, UniProt Q0CPG9)
T1 construct: […]; 6xHis; made in house; host or cells: E. coli BL21 (DE3)
Experiment: DHAD enzymatic inhibition assay (phenylhydrazine derivatization, LC-MS)
Assay type: biochemical
Details: 8 mM aspterric acid
Procedure: Enzymatic activity reactions were carried out in […] volumes containing 50 mM storage buffer, 10 mM (±)-Sodium 2,3-dihydroxyisovalerate hydrate (DHAD substrate) and 1 μM purified DHAD enzyme. After incubation for 30 minutes at 30° C., the reaction was stopped by adding an equal volume of ethanol. 1/10 volumes of 100 mM phenylhydrozine was added at room temperature for 30 minutes to derivatize the DHAD-synthesized molecule (3-methyl-2-oxo-butanoic acid) into a detectable derivatization product (DDP). See FIG. 5A for an overview of reactions.
Inhibition assays were carried out according to the reactions described above by incubating purified DHAD enzymes (either the housekeeping DHAD from Aspergillus terreus, the housekeeping DHAD from Arabidopsis thaliana, or AstD from Aspergillus terreus) with aspterric acid at various concentrations. For AstD, up to 8 mM of aspterric acid was tested. Derivatization with phenylhydrozine, LC-MS analysis, and DDP detection by UV absorption at 350 nm was carried out. The half maximal inhibitory concentration (IC50) and the effect of aspterric acid on the enzyme kinetics of each purified DHAD enzyme was calculated based on the initial reaction rates observed in the inhibition assays.
Biochemical assay of DHADs. […] The area of the HPLC peak with UV absorption at 350 nm was used to quantify the amount of 6. […]

T1 sequence (Q0CPG9 112-598): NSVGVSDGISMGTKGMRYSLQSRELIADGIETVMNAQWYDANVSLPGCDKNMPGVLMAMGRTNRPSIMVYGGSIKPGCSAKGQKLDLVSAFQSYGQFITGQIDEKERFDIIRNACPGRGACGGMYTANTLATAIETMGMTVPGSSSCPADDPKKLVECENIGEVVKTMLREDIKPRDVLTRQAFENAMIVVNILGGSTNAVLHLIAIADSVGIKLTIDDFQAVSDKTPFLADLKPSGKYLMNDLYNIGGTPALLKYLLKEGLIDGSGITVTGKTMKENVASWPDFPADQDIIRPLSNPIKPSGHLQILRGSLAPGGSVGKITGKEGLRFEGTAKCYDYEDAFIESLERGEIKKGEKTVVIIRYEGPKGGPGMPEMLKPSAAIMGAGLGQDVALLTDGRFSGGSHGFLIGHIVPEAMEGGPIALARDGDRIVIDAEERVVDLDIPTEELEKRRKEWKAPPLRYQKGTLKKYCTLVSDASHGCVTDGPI

CC(C)=C1CC[C@]23CO[C@H](C2)[C@@](O)(C(=O)O)CC[C@@H]13 [aspterric acid]
inhibition of AstD: no inhibition
inhibition of AstD (listed as AA): not inhibited
